# Experimental data: ChEMBL document CHEMBL1641500, “Carbonic anhydrase inhibitors. Inhibition studies with anions and sulfonamides of a new cytosolic enzyme from the scleractinian coral Stylophora pistillata” (Bioorg Med Chem Lett, 2011)
# Molecular target: T1, Alpha carbonic anhydrase (Stylophora pistillata, UniProt B5SU02)
# T1 sequence (B5SU02 whole entry): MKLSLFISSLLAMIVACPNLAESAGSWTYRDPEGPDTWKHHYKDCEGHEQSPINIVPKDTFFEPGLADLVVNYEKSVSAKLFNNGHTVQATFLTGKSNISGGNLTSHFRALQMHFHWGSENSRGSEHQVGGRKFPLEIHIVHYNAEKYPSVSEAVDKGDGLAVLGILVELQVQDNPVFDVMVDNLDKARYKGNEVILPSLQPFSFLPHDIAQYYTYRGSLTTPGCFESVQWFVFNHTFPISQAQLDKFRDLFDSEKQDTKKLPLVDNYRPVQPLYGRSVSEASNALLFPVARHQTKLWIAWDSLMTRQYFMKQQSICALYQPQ
row,Compound,Ki
1,Br [BROMIDE],9.7 µM
2,N#CO [CYANATE],590 µM
3,F [FLUORIDE ION],620 µM
4,Cl [HYDROCHLORIC ACID],500 µM
5,I [IODIDE],9 µM
6,O=[N+]([O-])O [NITRIC ACID],560 µM
7,O=NO [NITROUS ACID],770 µM
8,OB(O)c1ccccc1 [PHENYLBORONIC ACID],0.00068 µM
9,NS(=O)(=O)O [SULFAMATE],0.00081 µM
10,O=S(O)O [SULFUROUS ACID],410 µM
11,S1SSSSSSS1 [SULFUR],580 µM

# Molecular target: Carbonic anhydrase 1 (Homo sapiens, UniProt P00915)
# Sequence (P00915 whole entry): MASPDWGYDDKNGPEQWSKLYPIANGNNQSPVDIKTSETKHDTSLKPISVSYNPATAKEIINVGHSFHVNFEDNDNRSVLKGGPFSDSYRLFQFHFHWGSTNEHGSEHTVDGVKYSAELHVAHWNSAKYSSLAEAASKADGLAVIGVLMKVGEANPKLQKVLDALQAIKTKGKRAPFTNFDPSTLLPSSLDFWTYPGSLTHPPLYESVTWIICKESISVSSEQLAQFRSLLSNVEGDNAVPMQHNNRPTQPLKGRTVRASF
row,Compound,Ki
1,OB(O)c1ccccc1 [PHENYLBORONIC ACID],58.6 nM
2,NS(=O)(=O)O [SULFAMATE],0.021 nM
3,S1SSSSSSS1 [SULFUR],600 nM

# Molecular target: Carbonic anhydrase 6 (Homo sapiens, UniProt P23280)
# Sequence (P23280 whole entry): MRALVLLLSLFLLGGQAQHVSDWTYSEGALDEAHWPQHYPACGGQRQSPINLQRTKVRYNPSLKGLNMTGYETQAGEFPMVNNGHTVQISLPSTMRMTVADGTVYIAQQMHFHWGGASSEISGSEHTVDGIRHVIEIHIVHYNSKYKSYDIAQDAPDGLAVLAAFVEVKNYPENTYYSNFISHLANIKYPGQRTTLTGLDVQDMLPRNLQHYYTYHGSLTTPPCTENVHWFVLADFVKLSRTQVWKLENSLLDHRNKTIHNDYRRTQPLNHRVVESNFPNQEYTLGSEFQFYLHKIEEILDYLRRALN
row,Compound,Ki
1,Br [BROMIDE],730 µM
2,N#CO [CYANATE],690 µM
3,F [FLUORIDE ION],600 µM
4,Cl [HYDROCHLORIC ACID],720 µM
5,I [IODIDE],810 µM
6,O=[N+]([O-])O [NITRIC ACID],760 µM
7,O=NO [NITROUS ACID],820 µM
8,OB(O)c1ccccc1 [PHENYLBORONIC ACID],0.00082 µM
9,O=C1NS(=O)(=O)c2ccccc21 [SACCHARIN],0.935 µM
10,O=S(O)O [SULFUROUS ACID],14200 µM
11,S1SSSSSSS1 [SULFUR],710 µM

# Molecular target: T2, Carbonic anhydrase (Stylophora pistillata, UniProt C0IX24)
# T2 sequence (C0IX24 whole entry): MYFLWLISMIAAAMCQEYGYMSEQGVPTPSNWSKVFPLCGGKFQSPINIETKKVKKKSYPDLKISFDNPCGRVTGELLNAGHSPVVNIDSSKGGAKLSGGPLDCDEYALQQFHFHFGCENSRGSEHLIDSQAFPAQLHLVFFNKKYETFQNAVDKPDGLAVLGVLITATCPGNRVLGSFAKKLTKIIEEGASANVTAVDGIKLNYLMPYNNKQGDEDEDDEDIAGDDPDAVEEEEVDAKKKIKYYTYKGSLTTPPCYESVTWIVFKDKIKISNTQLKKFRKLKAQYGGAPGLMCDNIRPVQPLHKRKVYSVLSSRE
row,Compound,Ki
1,NNc1ccccc1S(N)(=O)=O,0.65 µM
2,Nc1ccc(S(N)(=O)=O)cc1I,0.695 µM
3,Nc1ccc(S(N)(=O)=O)cc1Br,0.54 µM
4,NCCc1ccc(S(N)(=O)=O)cc1,0.577 µM
5,Nc1ccc(S(=O)(=O)NCCc2ccc(S(N)(=O)=O)cc2)cc1,0.902 µM
6,NS(=O)(=O)c1ccc(S(=O)(=O)Nc2cccc3c(Cl)c[nH]c23)cc1,0.394 µM
7,NS(=O)(=O)c1nnc(NS(=O)(=O)c2ccccc2)s1 [BENZOLAMIDE],0.214 µM
8,CCN[C@H]1CN(CCCOC)S(=O)(=O)c2sc(S(N)(=O)=O)cc21 [BRINZOLAMIDE],0.169 µM
9,Br [BROMIDE],960 µM
10,Cc1ccc(-c2cc(C(F)(F)F)nn2-c2ccc(S(N)(=O)=O)cc2)cc1 [CELECOXIB],0.69 µM
11,N#CO [CYANATE],690 µM
12,F [FLUORIDE ION],920 µM
13,Cl [HYDROCHLORIC ACID],530 µM
14,I [IODIDE],33000 µM
15,NCc1ccc(S(N)(=O)=O)cc1 [MAFENIDE],0.508 µM
16,O=[N+]([O-])O [NITRIC ACID],990 µM
17,O=NO [NITROUS ACID],3150 µM
18,Cc1ccc(S(N)(=O)=O)cc1 [P-TOLUENESULFONAMIDE],0.516 µM
19,OB(O)c1ccccc1 [PHENYLBORONIC ACID],8.1e-06 µM
20,O=C1NS(=O)(=O)c2ccccc21 [SACCHARIN],0.104 µM
21,NS(=O)(=O)O [SULFAMATE],8.5e-06 µM
22,NS(N)(=O)=O [SULFAMIDE],5.7e-06 µM
23,O=S(O)O [SULFUROUS ACID],430 µM
24,S1SSSSSSS1 [SULFUR],3940 µM
